Legend:
[1] = tested on: differentiated N1E-115 cells; experiment: Live imaging of EB3 comet-like structures (MT dynamics); format: cell-based, mouse
Protocol: Cell culture—Mouse neuroblastoma NIE-115 cells were maintained in Dulbecco's modified Eagle's medium, 10% fetal bovine serum, 2 mM glutamine and 100 U ml—1 penicillin, […] ml—1 streptomycin (Biological Industries, Beit Haemek, Israel). The cells were incubated in 95% air/5% CO2 in a humidified incubator at 37° C.
Cell differentiation and co-transfection of overexpression plasmids—Cultured NIE-115 cells were plated on 35 mm dishes (81156, 60μ-Dish, Ibidi, Martinsried, Germany) at a concentration of 1.25×10^4 cells per dish and then were differentiated with reduced fetal bovine serum (2%) and DMSO (1.25%) containing medium for 5 days before transfection. 48 hrs before experiments N1E-115 cells were co-transfected with 1 μg EB3-RFP or mCherry-Tau (3R) plasmid with or without 2 μg of plasmids, coding to GFP conjugated to full-length human ADNP, or ADNP carried mutations. 1:3 ratios between total amount of transfected DNA and transfection reagent were used according to manufacture guidance (Lipofectamine2000, Thermo Fisher Scientific, Waltham, MA, USA) in all subsequent experiments.
Live Imaging—48 hrs after transfection, differentiated NIE-115 cells (expressing EB3-RFP with or without GFP-conjugated to full-length ADNP or mutated ADNP) were incubated at 37° C. with a 5% CO2/95% air mixture in a thermostatic chamber placed on the stage of a Leica TCS SP5 confocal microscope (objective 100× (PL Apo) oil immersion, NA 1.4). Time-lapse images were automatically captured 3 sec during 1 min, using the Leica LAS AF software. After imaging all samples were also treated with NAP (SEQ ID NO: 2) or SKIP (SEQ ID NO: 21) in final concentrations of 10^−12 M, and after 4 hrs time-lapse imaging was done again under the same conditions. Data was collected and analyzed by Imaris software.
To evaluate the effect of ADNP truncated proteins on MT dynamics time-lapse imaging of EB3 comet-like structures formed by RFP-tagged EB3 proteins that bind to MT plus-ends was performed. Two parameters of EB3 activity were used to assess MT dynamics—track length and track speed of EB3 comets, which reflect the length of freshly growing MTs and the speed of MT assembly, respectively. Furthermore, the present inventors aimed to determine whether NAP (10^−12 M for 4 hrs) could prevent the deleterious effect of ADNP mutations.

Tyr mice [2] = experiment: Fecal microbiota real-time PCR loads; format: in vivo, mouse; parameters: key to NAP efficacy: microbiota: corrections by NAP treatment (+)
Protocol: Microbiome—Fecal samples were collected from 12.2±0.19-week-old mice. Samples were prepared and analyzed as previously described (57). Microbiome data was analyzed after applying the logarithmic transformation.

[3] = Ivashko-Pachima and Gozes 2020; cited from earlier work
Tyr mice [4] = experiment: CatWalk gait analysis; format: in vivo, mouse; parameters: key to NAP efficacy: motor impediments: corrections by NAP treatment (+)
Protocol: Animals—Animals were housed under a 12-hour light/dark cycle, with food and water ad-libitum. Mouse pups were subcutaneously administrated with NAP [having an amino acid sequence NAPVSIPQ (SEQ ID NO: 2), 25 μg NAP/1 ml saline] as described (8, 12). At 21 days of age mice were administered daily intranasal NAP in vehicle solution (“DD”—7.5 mg/ml of NaCl, 1.7 mg/ml of citric acid, 3 mg/ml of disodium phosphate dihydrate, and 0.2 mg/ml of 50% benzalkonium chloride solution) (0.5 μg NAP/5p1 DD) (8, 9, 12, and U.S. Pat. No. 10,912,819 to Gozes). These mice continued to behavioral analysis as described hereinbelow. The noninvasive intranasal route was chosen as these experiments required daily handling and administration. Age (weeks) of mice during behavioral experiments (mean±SEM) was as follows: Catwalk-9.23±0.15, grooming-10±0.15, social approach-10.5±0.12, odor-discrimination-12.12±0.13, hanging-wire-13±0.14, hotplate-13.18±0.13. Group size was determined following previous experiments (12). Pups were randomly allocated to either the NAP or DD group according to sex and genotype. All procedures involving animals were conducted under the supervision and approval of the institutional animal care and use committee of Tel Aviv University and the Israeli Ministry of Health.
Catwalk—Was performed as previously described (12).
CatWalk: Briefly, The CatWalk XT (Noldus Inc. Leesburg, VA) was used to analyze the gait of unforced, moving mice^10 Mice had to cross the runway of the CatWalk XT apparatus in a consistent manner, and a successful run was defined when an animal ran the track without any interruption or hesitation. Every mouse was tested until 3 successful runs were achieved.
Base of support is the average width between either the front paws or the hind paws. Swing (sec) or swing phase is the duration in seconds of no contact of a paw with the glass plate. Swing Speed is the speed (Distance Unit/second) of the paw during Swing. Max Contact Max Intensity is the maximum Intensity at Max Contact of a paw. Intensity ranges from 0 to 255 in arbitrary units. The intensity of a print depends on the degree of contact between a paw and the glass plate and increases with increasing weight. Therefore, Intensity is a measure of weight put on the glass plate.
The Intensity parameter is used to assess the effects of neuropathic pain, including mechanical allodynia. Max Contact Mean Intensity is the mean Intensity of a paw at Max Contact. Print length is the length (horizontal direction) of the complete print. The complete print is the sum of all contacts with the glass plate, as if the animal's paw would have been inked. Print width is the width (vertical direction) of the complete paw. Print area is the surface area of the complete print. Max Intensity is the maximum Intensity of the complete paw. Mean intensity is the mean Intensity of the complete paw.

Tyr mice [5] = experiment: AT8 (hyperphosphorylated Tau) immunohistochemistry; format: in vivo, mouse; parameters: key to NAP efficacy: tauopathy, hyperphosphorylated Tau deposits: corrections by NAP treatment (+)
Protocol: AT8 Immunohistochemistry—experiment was performed as previously described (100). Mice were treated for 6 weeks with daily intranasal DD/NAP and were euthanized at 10.21±0.05 weeks of age.

[6] = Tyr mouse, first symbol of cell
[7] = male Tyr mice, 6 weeks daily intranasal NAP

## CC[C@H](C)[C@H](NC(=O)[C@H](CO)NC(=O)[C@@H](NC(=O)[C@@H]1CCCN1C(=O)[C@H](C)NC(=O)[C@@H](N)CC(N)=O)C(C)C)C(=O)N1CCC[C@H]1C(=O)N[C@@H](CCC(N)=O)C(=O)O [NAP, NAPVSIPQ]
[1]; 10^−12 M, 4 hrs
  Difference between effects of NAP and SKIP on EB3 track length and speed: no significant differences
[1]; cells expressing ADNP p.Glu830synfs*83, 10^−12 M, 4 hrs
  Speed and track length of EB3 comets: significantly augmented
[1]; cells expressing ADNP p.Lys408Valfs*31, 10^−12 M, 4 hrs
  EB3 comet speed: significantly augmented
[1]; cells expressing ADNP p.Lys408Valfs*31 SDM, 10^−12 M, 4 hrs
  EB3 activity (track length and comet speed): recovered EB3 activity to the control level
[1]; cells expressing ADNP p.Ser404*, 10^−12 M, 4 hrs
  Speed and track length of EB3 comets: significantly augmented
[1]; cells overexpressing full-length ADNP, 10^−12 M, 4 hrs
  EB3 comet track length and speed: did not further influence
[1]; no ADNP plasmid, 10^−12 M, 4 hrs
  EB3 track length and speed compared to non-treated control: increased EB3 track length and speed
[1]; summary of results
  MT activities in the face of all ADNP mutations: normalized MT activities
Tyr mice [2]; [6]
  NAP efficacy: microbiota: +/+
Tyr mice [2]; WT mice
  EubV3, BIF, Lacto, Entero loads: no effect on WT mice
Tyr mice [2]; WT mice, data not shown
  Clostridium coccoides group (gCcoc) and Mouse intestinal Bacteroides (MIB) loads: other varying effects
Tyr mice [2]; female Tyr mice
  Bifidobacterium genus (BIF) load: NAP correction
Tyr mice [2]; male Tyr mice
  Total eubacterial load (EubV3): corrected with NAP treatment
[3]
  Cell penetration: bioavailable by endocytosis
Tyr mice [4]; Tyr mice, males and females
  Front base of support: NAP correcting this phenotype in males
Tyr mice [4]; Tyr mouse (gait), first symbol of cell
  NAP efficacy: motor impediments: +/(gait)+
Tyr mice [4]; WT mice, data not shown
  Gait parameters: No major NAP effect
Tyr mice [4]; female Tyr mice
  Intensity parameters (gait): significant NAP correction
  Swing speed and swing duration: ameliorated by NAP
Tyr mice [4]; female Tyr mice, FIG. 1F
  Print width: significant NAP correction effect
Tyr mice [4]; male Tyr mice, daily intranasal NAP
  Print length and area: significant NAP recovery
Tyr mice [5]; Tyr mice, both sexes, data not shown
  Combined AT8- and AT180-positive cells: correction by NAP in both sexes
Tyr mice [5]; [6]
  NAP efficacy: tauopathy, hyperphosphorylated Tau deposits: +/+
Tyr mice [5]; WT males, data not shown
  AT8 staining: did not display a NAP effect
Tyr mice [5]; [7]
  Decrease of AT8 positive cells in the hippocampus: ~2.57 fold
  Reversal of AT8 staining in the visual cortex: ~2 fold
